Experimental data reported in patent US8143237B2, “Anti-cancer drugs, and uses relating for malignant melanoma and other cancers” (Kasina Laila Innova Pharmaceuticals Private Limited, priority 2009, dated 2012).
Values after ≈ are worked out from the molar mass of the structure shown. “Also recorded” adds a separate entry of the source. Where two headings read alike, the source gives them in different places. Each block holds one compound with its values, some of them ahead of it.

Assays:
[1] = system: human malignant melanoma A375 cells; assay: MTT based cell proliferation assay, A375 cells; conditions: A-375, 72 h, three days incubation, read-out: Cell proliferation inhibition in A375 cells, IC50
Protocol: The cytotoxic efficacies of the various selenopheno triazene compounds (compounds 1 to 16) was evaluated in both human malignant melanoma A375 cells and mouse malignant melanoma B16 F0 cells by MTT cell proliferation assay kit (Roche Applied Sciences, Germany). The assay was carried out according to the instruction provided by the vendor. Briefly, equal numbers of cells was plated in 96-well flat-bottomed plates and were incubated with both DTIC and the test compounds (compounds 1 to 16) at various concentrations for a period of three days. […] Finally, the cells were solubilized by adding solubilizing solution and allowed to incubate at 37° C. overnight. After complete solubilization of the formazan crystals, the absorbance was read at 540 nm in a microplate reader (BioRad, USA).

[2] = system: Human umbilical vein endothelial cells (HUVEC); assay: Endothelial cell migration assay; assay type: cell-based; conditions: 5 and 10 μg/ml, 18 h
Protocol: The methodology of endothelial cell migration assay was essentially the same as described earlier with some modifications (Sengupta, K et al., Mol. Cancer. Res. 2004; 2: 150-158.). FALCON™ Cell Culture inserts (Becton Dickinson, USA) with 8 μm-pores in their PET membrane was coated with 0.1 mg/ml of collagen. Human umbilical vein endothelial cells (HUVEC) were added to the cell culture inserts (Becton Dickinson) at a density of 5×10^4 cells/insert. Cells were allowed to migrate through the insert for 18 h in presence of different concentrations of either DTIC or Compound 1. The control culture containing migration assembly received only 0.1% DMSO. […] The membranes of the inserts were then mounted on glass slides. Cells migrated through the membrane pores were counted in 20 random fields under Nikon Eclipse TS 100 microscope at 20× objective.

[3] = system: B16 F0 melanoma xenograft; assay: B16 F0 melanoma xenograft model of C57B6J mice; assay type: in vivo, mouse; conditions: fourteen days, tumor weight
Protocol: In vivo efficacy of compound 1 against melanoma growth was evaluated in B 16 F0 melanoma xenograft model of C57B6J mice. C57B6J mice of 6 weeks age (body weight 18-22 g) were purchased from National Institute of Nutrition (NIN), Hyderabad (India). Animals study protocols were approved by Institutional Ethics Committee (IAEC). All the studies were performed in compliance with the Committee for the Purpose of Control and Supervision of Experiments on Animals (CPCSEA) guidelines and OECD guidelines. Animals were allowed free access to standard feed and provided charcoal filtered and UV exposed water ad libitum. The animals were maintained at a controlled temperature (24-26° C.), humidity (45-70%), and 12 h/12 h of light/dark cycle.
To induce the melanoma tumor formation, sub-confluent B16F0 cells were harvested by brief trypsinization and 1×10^6 cells were injected subcutaneously in 0.2 ml phosphate-buffered saline. Drug treatment was started after development of palpable tumors (3-5 days after implantation of the cells). Drugs were prepared in phosphate-buffered saline (10% DMSO, v/v) and either 75 mg/kg of DTIC or 25 mg/kg of compound 1 was administered daily through intra-peritoneal route. Vehicle treated control animals received only 10% DMSO in phosphate buffered saline. After fourteen days of treatment, the animals were sacrificed by CO2 inhalation and tumors were excised and weighed.

[4] = system: A375 human melanoma xenograft; assay: A375 human melanoma xenograft model of nu/nu BALB/c nude mice; assay type: in vivo, mouse; conditions: 25 mg/kg daily intra-peritoneal, twenty one days, tumor volume, p=0.04322
Protocol: To further substantiate the anti-melanoma efficacy of the Compound 1, this compound was tested for its anti-melanoma efficacy in A375 human melanoma xenograft model of nu/nu BALB/c nude mice. The animals of 6-8 weeks age (body weight 18-22 g) were used in this study. Animals study protocols were approved by Institutional Ethics Committee (IAEC). All the studies were performed in compliance with the Committee for the Purpose of Control and Supervision of Experiments on Animals (CPCSEA) guidelines and OECD guidelines. Animals were allowed free access to sterile standard rodent diet and provided with charcoal filtered and UV exposed water ad libitum. The animals were housed in a sterile room and were located individually in ventilated cages. The room was maintained at a controlled temperature (24-26° C.), humidity (45-70%), and 12 h/12 h of light/dark cycle.
To induce the melanoma tumor, sub-confluent A375 human melanoma cells were harvested by brief trypsinization and 1×10^6 cells were injected subcutaneously in 0.2 ml phosphate-buffered saline. Drug treatment was started after development of palpable tumors (6-7 days after implantation of the cells). At this point the tumor take rate was 100%. […] After twenty one days of treatment, the animals were sacrificed by CO2 inhalation and tumors growth was measured by the following formula (Friedman H S et al., Mol Cancer Ther 2002; 1:943-948). […]

[5] = cited from earlier work
[6] = system: human plasma protein; conditions: at therapeutic concentrations; cited from earlier work
[7] = system: malignant melanoma; conditions: single-agent, malignant melanoma patients; cited from earlier work
[8] = patient with renal and hepatic dysfunctions

SMILES: Cc1[se]c(C(N)=O)cc1/N=N/N(C)C [Compound 1, 4-[(dimethylamino)diazenyl]-5-methylselenophene-2-carboxamide]
IC50 [1]: 9.81 µg/mL (≈ 37.9 µM)
Migration of human endothelial cells (HUVEC) [2]: significant inhibition of migration; also recorded: inhibited endothelial cell migration
Inhibition in tumor growth, mouse melanoma xenograft model of C57B6J mice ([3]; 25 mg/kg daily intra-peritoneal): 31.2%
Inhibition of melanoma tumor growth, A375 human melanoma xenograft model of nude mice [4]: 46.52%
melting point: 170 to 172 °C

IC50 [1]: 70.1 µg/mL (≈ 385 µM)
SMILES: CN(C)N=Nc1[nH]cnc1C(N)=O [DTIC, 5-(3,3-dimethyl-1-trizeno)-imidazole-4-carboxamide, reference compound]
Inhibition in tumor growth, mouse melanoma xenograft model of C57B6J mice ([3]; 75 mg/kg daily intra-peritoneal): 17%
Initial half life of disappearance from plasma ([5]; biphasic disappearance): 19 min
Average cumulative excretion of unchanged drug in the urine ([5]; in six hours): 40 % of the injected dose
Initial half life of disappearance from plasma [5, 8]: 55 min
Terminal half life of disappearance from plasma [5, 8]: 432 min
Binding to human plasma protein [6]: not appreciably bound
Complete responses [7]: less than 5 % of patients
